# According to patent US20160252494A1, “MICROSCALE MICROPATTERNED ENGINEERED IN VITRO TISSUE” (priority 2005, published 2016):
# Like-named read-outs stand apart in the source and are kept apart here.
# Tests used:
# [1] = system: micropatterned human co-cultures (primary human hepatocytes with 3T3-J2 fibroblasts); conditions: MTT
# Experimental: Cultures were incubated with various concentrations of compounds dissolved in culture medium for 24 hours (acute toxicity) or extended time periods (chronic toxicity, 1-4 days). Cell viability was subsequently measured via the MTT (3-(4,5-dimethylthiazol-2-yl)-2,5-diphenyl tetrazolium bromide; Sigma) assay, which involves cleavage of the tetrazolium ring by mitochondrial dehydrogenase enzymes to form a purple precipitate. MTT was added to cells in DMEM without phenol red at a concentration of 0.5 mg/mL. After an incubation time of 1 hour, the purple precipitate was dissolved in a 1:1 solution of DMSO and Isopropanol. The absorbance of the solution was measured at 570 nm (SpectraMax spectrophotometer, Molecular Devices, Sunnyvale, Calif.).
# Use of optimized micropatterned human co-cultures to evaluate metabolism and toxicity of xenobiotics. […] Acute toxicity tests involved incubating eight day old co-cultures for 24 hrs with various drugs, some with known clinical hepatotoxic potential. After the incubation time period, the cell culture medium was aspirated and a viability assay was conducted (MTT assay—commercially available). […]
# To assess utility of the microscale human liver tissue for toxicity assays, the acute and chronic toxicity of model hepatotoxins were quantified. […]
# CYP2B [2] = system: CYP2B
# CYP1A2 [3] = conditions: human and rat, 4 days, 50 µM
# CYP2A6 [4] = system: CYP2A6
# Experimental: The reactions were stopped by collection of the incubation medium. Then, potential metabolite conjugates formed via Phase II activity were hydrolyzed by incubation of supernatants with β-glucuronidase/arylsulfatase (Roche, IN) for 2 hours at 37° C. Samples were diluted 1:1 in quenching solution and fluorescent metabolite formation was quantified by means of a fluorescence micro-plate reader (Molecular Devices, Sunnyvale, Calif.) as described elsewhere in detail. Production of 7-HC from CM is a reaction (CM 7-Hydroxylation) mediated by CYP2A6 in humans, production of 7-HFC from BFC or MFC (dealkylation) is mediated by several different CYP450s, and production of RR from ER (ER Odealkylation) is mediated by CYP1A2.
# Cytochrome-P450 Induction. Stock solutions of prototypic CYP450 inducers (Sigma) were made in dimethylsulfoxide (DMSO), except for Phenobarbital, which was dissolved in water. Cultures were treated with inducers (Rifampin 25 μM, β-Naphthoflavone 30 μM or 50 μM, Phenobarbital 1 mM, Omeprazole 50 μM) dissolved in hepatocyte culture medium for 4 days. Control cultures were treated with vehicle (DMSO) alone for calculations of fold induction. To enable comparisons across inducers, DMSO levels were kept constant at 0.06% (v/v) for all conditions.
# CYP2B [5] = assay: CYP2B protein induction in static and perfused bioreactor hepatocyte cultures
# CYP3A [6] = assay: CYP3A protein induction in static and perfused bioreactor hepatocyte cultures
# CYP2A6 [7] = target: T1, CYP2A6 (Homo sapiens, UniProt P11509)
# T1 sequence (P11509 1-494): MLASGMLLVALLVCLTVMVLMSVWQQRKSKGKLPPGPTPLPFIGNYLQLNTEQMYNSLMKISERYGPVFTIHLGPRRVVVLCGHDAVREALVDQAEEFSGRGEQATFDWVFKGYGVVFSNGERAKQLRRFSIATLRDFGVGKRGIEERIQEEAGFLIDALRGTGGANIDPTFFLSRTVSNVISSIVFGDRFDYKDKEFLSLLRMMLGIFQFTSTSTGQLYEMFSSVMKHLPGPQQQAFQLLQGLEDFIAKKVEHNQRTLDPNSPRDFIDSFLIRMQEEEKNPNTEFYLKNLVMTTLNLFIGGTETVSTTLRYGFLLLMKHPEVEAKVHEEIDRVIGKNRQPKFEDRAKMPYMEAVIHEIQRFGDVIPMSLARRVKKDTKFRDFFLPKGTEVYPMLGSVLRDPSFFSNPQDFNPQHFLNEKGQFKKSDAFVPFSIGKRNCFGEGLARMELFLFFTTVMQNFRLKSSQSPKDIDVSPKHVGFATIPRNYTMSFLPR
# Experimental: Mitochondrial activity was measured using the MTT assay. All data was normalized to vehicle-only controls. […] ER, Ethoxy-resorufin. […] Error bars represent standard error of the mean (n=3).
# The reactions were stopped by collection of the incubation medium. Then, potential metabolite conjugates formed via Phase II activity were hydrolyzed by incubation of supernatants with β-glucuronidase/arylsulfatase (Roche, IN) for 2 hours at 37° C. Samples were diluted 1:1 in quenching solution and fluorescent metabolite formation was quantified by means of a fluorescence micro-plate reader (Molecular Devices, Sunnyvale, Calif.) as described elsewhere in detail.
# CYP1A2 [8] = assay: Induction of CYP1A2 activity in microscale liver tissues (ethoxyresorufin dealkylation); conditions: incubation 1 or 3 days, varying dose
# CYP3A [9] = conditions: hepatocytes
# [10] = static cultures, 48 hour induction
# [11] = treated 4 days with prototypic inducers
compound,measurement,setting,value
"[Cl][Cd][Cl] [Cadmium, Cadmium chloride]",Relative acute toxicity in vitro,[1]; 24 hrs incubation,severely toxic
same,Shape of dose-dependent toxicity profile,[1]; acute exposure 24 hours,relatively linear toxic profile
"C[C@@H]1C[C@H]2[C@@H]3CCC4=CC(=O)C=C[C@]4(C)[C@@]3(F)[C@@H](O)C[C@]2(C)[C@@]1(O)C(=O)CO [DEX, dexamethasone]",CYP2B induction,CYP2B [2],high levels
COc1ccc2[nH]c([S+]([O-])Cc3ncc(C)c(OC)c3C)nc2c1 (stereo not shown) [Omeprazole],Effectiveness of CYP1A2 induction in human over rat models,CYP1A2 [3],8 fold
same,CYP2A6 induction,CYP2A6 [4],weaker effects
CCC1(c2ccccc2)C(=O)NC(=O)NC1=O [Phenobarbital],CYP2B expression,"CYP2B [5]; perfused cultures, 36 hours",Dramatic expression of both CYPs over controls
same,CYP2B expression,CYP2B [5]; [10],moderate
same,CYP2A6 induction,CYP2A6 [4]; [11],induction was observed
same,CYP3A expression,"CYP3A [6]; perfused cultures, 36 hours",Dramatic expression of both CYPs over controls
same,CYP3A expression,CYP3A [6]; [10],low
CO[C@H]1/C=C/O[C@@]2(C)Oc3c(C)c(O)c4c(O)c(c(/C=N/N5CCN(C)CC5)c(O)c4c3C2=O)NC(=O)/C(C)=C\C=C\[C@H](C)[C@H](O)[C@@H](C)[C@@H](O)[C@@H](C)[C@H](OC(C)=O)[C@@H]1C [Rifampin],CYP2A6 induction,CYP2A6 [4],induction was observed
"COc1c2occc2cc2ccc(=O)oc12 [methoxsalen, Methoxsalen]",Inhibition of CYP2A6 activity,CYP2A6 [7],dose-dependent inhibition
O=c1cc(-c2ccccc2)oc2ccc3ccccc3c12 [β-Naphthoflavone],Induction of CYP1A2 activity,CYP1A2 [8],dose and time-dependent manner
same,CYP2A6 induction,CYP2A6 [4]; [11],weaker effects
"EGF: epidermal growth factor, added to perfusion media with PB or DEX",Effect on DEX-induced CYP3A induction,CYP3A [9],remained uniform
same,Effect on DEX-induced CYP2B,CYP2B [2],significant shift in CYP2B spatial distribution was noted from inlet regions to the outlet
